Assay results from patent US12479858B2, “Macrocyclic compounds as sting agonists and methods and uses thereof” (Lupin Limited, priority 2019, dated 2025).
Structures can show the parent of a compound that is named as a salt. Where two headings read alike, the source gives them in different places.

Key:
[1] = Plasma and tumor compound concentrations in CT26 tumor-bearing mice (LC-MS/MS); type: in vivo, BALB/c mice; settings: 0.375 mg/kg single i.v.; for concentration at 3.5 h / concentration at 8 h / concentration at 12 h / concentration at 24 h: BALB/c, mouse, intravenous; for concentration at 3.5 h: 3.5 h (Table 4); for concentration at 8 h: 8 h (Table 4); for concentration at 12 h: 12 h (Table 4)
Protocol: Pharmacokinetic and Pharmacodynamic Profiling and Estimation of Immune Cell Infiltration in Tumors Following Treatment with Compounds 2, 6, 8, 12 and 14
Serum and tumor cytokine levels and corresponding compound concentrations in mouse plasma were determined following single-dose intravenous administration in CT26 (murine colorectal carcinoma) tumor-bearing mice. Briefly, naïve BALB/c mice in the age group of 6-8 weeks were inoculated with 0.1 million CT-26 cells/animal in phosphate buffered saline (PBS), subcutaneously. […] Blood and tumor samples were harvested at various time points up to 24 h post-dose. Tumor samples were homogenized and prepared for cytokine estimation (ELISA) and compound concentration were determined by LC-MS/MS. Serum aliquots and tumor samples were snap-frozen and stored at −80° C. till further analysis. Serum and tumor samples were evaluated for Interferon beta (IFNβ), interleukin-6 (IL-6) and tumor necrosis factor alpha (TNFα) by enzyme linked immunosorbent assay (ELISA) using kits from R & D systems (Quantikine mouse IL-6 and TNFα kits) and PBL biosciences (Verikine mouse IFNβ kit).
Bioanalysis of plasma and tumor samples: Plasma and tumor concentrations of test compounds were determined by LC-MS/MS method. Tumor samples were homogenized utilizing a bead-based homogenizer. Plasma samples and tumor homogenates were extracted using protein precipitation method with organic solution containing respective internal standards. Plasma and tumor concentrations were determined against respective calibration curve. Table 3 indicates the concentration of Compound 2 in plasma and tumor at different administered doses. Table 4 indicates the concentration of Compounds 6, 8, 12, and 14 in plasma and tumor at different administered doses. Table 5 indicates cytokine levels for Compound 2 in serum and tumor at different doses. Table 6 indicates cytokine levels for Compounds 6, 8, 12 and 14 in serum and tumor at 0.375 mpk.

CT26 Allograft = assay: Tumor volume in CT26 allograft BALB/c mice model, intravenous administration; type: in vivo; settings: i.v., indicated dose at days 1, 4, and 8
Protocol: Effect of Compounds on Tumor Volume in CT26 Allograft BALB/c Mice Model by Intravenous (i.v.) Administration
Healthy, female BALB/c mice in the age group of 5-8 weeks issued from Research Animal Facility (RAF). These mice were housed in individually ventilated cages (IVC) in the experimental animal room and were acclimatized not less than 5 days prior to cell inoculation. All the experimental activities were carried out inside the biosafety cabinet to ensure sterility. Under aseptic conditions, Allograft tumor model was generated by inoculating BALB/c mice with 0.1 million CT26 single cell suspension (colorectal cancer model), using 1 mL disposable syringe fitted with a 26G ½″ sterile needle. Each mouse was inoculated with 100 μL of CT26 cell suspension in phosphate buffered saline (PBS) media, subcutaneously in right flank region. Mice were randomized into different groups, post cell inoculation, with approximately equal mean and equal variation (S.E.M.) of tumor volumes in various treatment groups including vehicle control group.
Tumor size was measured with Vernier caliper when the tumor became palpable. Tumor volume (T. V.) was calculated by using the formula: Tumor volume (mm^3)=(L×W^2)/2 • Where, L—Length of tumor, W—Width of tumor
Mice were selected and randomized, on the basis of tumor volume, into required no. of groups with approximately equal mean and equal variation on day 1 of treatment, post-tumor cell inoculation. All study groups were treated via intravenous route on day 1, 4 and 8 dosing schedule, through lateral tail vein at a dose volume of 5 mL/kg.
Tumor sizes were measured with Vernier caliper twice weekly and body weights of mice were recorded daily.
Percent tumor growth inhibition (% TGI) was calculated using the formula: % TGI=[1−(Tf−Ti)/(Cf−Ci)]×100 Wherein Tf and Ti are the final and initial test tumor volumes, respectively, and Cf and Ci are the final and initial control mean tumor volumes, respectively.
Percent Tumor Regression (% TR) was calculated using the formula: % TR=[(Initial T.V.−Final T.V.)/(Initial T.V.)]×100 Wherein T.V.=Tumor Volume
Body weight change (%) was calculated by using the formula: Body weight change (%)[=(Final B.Wt.)−(Initial B.Wt.)/Initial B.Wt.]×100 Wherein B.Wt.=Body weight

[2] = Apparent solubility/extended kinetic solubility by UHPLC; type: physicochemical; settings: aqueous buffer, thermodynamic from solid, phosphate buffer, 37° C.
Protocol: Biological Assay—Determination of Apparent Solubility/Extended Kinetic Solubility by UHPLC
Test sample preparation: About 0.5 mg of the test sample was weighed and transferred in duplicate in 1 mL glass inserts of 96 well plates. 5 μL of DMSO and 1 ml of phosphate buffer were added. Allowed for equilibrium in an orbital shaker at 37° C. for 24 hrs. Later, allowed it cool to room temperature and centrifuged the 96 well plate (at 240×10 RPM for 20 min) and supernatant material was taken into collection plate, covered it with the heat resistant aluminum sheet or supernatant material was directly taken into HPLC sample vial.
Injected diluent as blank and linearity solutions in duplicate. Recorded the chromatograms and plotted the calibration curve, concentration (X-axis) versus Area (y-axis). The correlation coefficient for calibration curve should be not less than 0.95. If above criteria passes, then injected the test samples and recorded the chromatograms. In case saturated peaks are observed, then diluted the test sample with diluent as appropriate.
Calculated the slope and intercept of the calibration curve. From the standard curve, determined the solubility of the sample in μM (micromolar).

| Plasma Conc. ([1]; 24 h (Table 4)) | Tumor Conc. ([1]; 24 h (Table 4)) | SMILES | concentration at 3.5 h ([1]; plasma, read-out: Plasma Conc.) [nM] | concentration at 8 h ([1]; plasma, read-out: Plasma Conc.) [nM] | concentration at 12 h ([1]; plasma, read-out: Plasma Conc.) [nM] | concentration at 24 h ([1]; plasma, 24 h (Table 4), read-out: Plasma Conc.) [nM] | concentration at 3.5 h ([1]; tumor, read-out: Tumor Conc.) [nM] | concentration at 8 h ([1]; tumor, read-out: Tumor Conc.) [nM] | concentration at 12 h ([1]; tumor, read-out: Tumor Conc.) [nM] | concentration at 24 h ([1]; tumor, 24 h (Table 4), read-out: Tumor Conc.) [nM] | effect on tumor volume (CT26 Allograft) | subjects exhibiting complete tumor regression (CT26 Allograft) | solubility at 24 h [2] [mM] |
| --- | --- | --- | --- | --- | --- | --- | --- | --- | --- | --- | --- | --- | --- |
| – | – | CCn1nc(C)cc1C(=O)Nc1nc2cc(C(N)=O)cc3c2n1C/C=C/Cn1c(NC(=O)c2cc(C)nn2CC)nc2cc(C(=O)N[C@H]4CC[C@H](c5nnn[nH]5)CC4)cc(c21)OC[C@@H](N1C2CCC1COC2)CO3 [Compound 12, (8S,E)-N4-((1R,4S)-4-(1H-tetrazol-5-yl)cyclohexyl)-8-(3-oxa-8-azabicyclo[3.2.1]octan-8-yl)-1,15-bis(1-ethyl-3-methyl-1H-pyrazole-5-carboxamido)-8,9,16,19-tetrahydro-7H-6,10-dioxa-2,14,15a,19a-tetraazacyclopentadeca[3,2,1-cd:8,9,10-c′d′]diindene-4,12-dicarboxamide sodium salt] | 440 ± 50 | 180 ± 50 | 90 ± 20 | 20 | 360 ± 130 | 190 ± 80 | 300 ± 120 | 130 ± 40 | reduces tumor volume | 8 out of 10 | 14.2 |
| BLQ | BLQ | CCn1nc(C)cc1C(=O)Nc1nc2cc(C(N)=O)cc3c2n1C/C=C/Cn1c(NC(=O)c2cc(C)nn2CC)nc2cc(C(=O)NCCCn4cc(C(=O)O)cn4)cc(c21)OCCCO3 [Compound 8, (E)-1-(3-(12-carbamoyl-1,15-bis(1-ethyl-3-methyl-1H-pyrazole-5-carboxamido)-8,9,16,19-tetrahydro-7H-6,10-dioxa-2,14,15a,19a-tetraazacyclopentadeca[3,2,1-cd:8,9,10-c′d′]diindene-4-carboxamido)propyl)-1H-pyrazole-4-carboxylic acid sodium salt] | 40 ± 10 | 20 ± 10 | 20 ± 10 | – | 90 ± 10 | 60 ± 10 | 60 | – | reduces tumor volume | 5 out of 9 | 5.23 |
